Tests used:
Phytophthora infestans = experiment: whole plant or invertebrate; assay type: in vivo; conditions: in Solanum lycopersicum, foliar, 96 h, read-out: control of fungal infection, Phytophthora infestans
Pythium ultimum = experiment: Growth inhibition in potato dextrose broth, Pythium ultimum (damping off), photometric; assay type: cell-based; conditions: Globisporangium ultimum, 24° C., 48 hours, read-out: control of fungal infection, Pythium ultimum
How it was run: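 Growth inhibition was read photometrically at 48 hours after incubation at 24° C. Test compound was diluted from DMSO to 20 ppm in water and combined with potato dextrose broth seeded with Pythium ultimum mycelial fragments.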

Plasmopara viticola = experiment: Leaf disk assay, Plasmopara viticola (downy mildew of grapevine), preventive; assay type: in vivo; conditions: foliar, 168 h, grapevine leaf disks, assessed seven days after inoculation, read-out: control of fungal infection, Plasmopara viticola
Septoria tritici = experiment: Growth inhibition in nutrient broth, Septoria tritici (leaf blotch), photometric; assay type: cell-based; conditions: Zymoseptoria tritici, PDB broth, 24 C, 72 hrs, read-out: control of fungal infection, Septoria tritici
Botrytis cinerea = experiment: Leaf disk assay, Botrytis cinerea (grey mould) on bean, preventive; assay type: in vivo; conditions: foliar, 96 h, bean leaf disks, assessed four days after inoculation, read-out: control of fungal infection, Botrytis cinerea
[1] = test system: Erysiphe graminis f.sp. tritici; experiment: Leaf disk assay, Erysiphe graminis f.sp. tritici (wheat powdery mildew), preventive; assay type: in vivo; conditions: Blumeria graminis, foliar, 96 h, wheat leaf segments, assessed four days after inoculation, read-out: control of fungal infection, Erysiphe graminis f.sp. tritici
How it was run: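 Preventive protocol: compound at 200 ppm in water (from DMSO) sprayed onto wheat leaf segments on agar, dried 12–24 h, then spore-inoculated. Fungicidal activity was assessed four days post-inoculation.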

Septoria nodorum = experiment: Leaf disk assay, Septoria nodorum (wheat glume blotch), preventive; assay type: in vivo; conditions: Parastagonospora nodorum, foliar, 96 h, wheat leaf segments, assessed four days after inoculation, read-out: control of fungal infection, Septoria nodorum
Pyrenophora teres = experiment: Leaf disk assay, Pyrenophora teres (barley net blotch), preventive; assay type: in vivo; conditions: foliar, 96 h, barley leaf segments, assessed four days after inoculation, read-out: control of fungal infection, Pyrenophora teres
Experimental: The compounds were tested in a leaf disk assay, with methods described below. The test compounds were dissolved in DMSO and diluted into water to 200 ppm. In the case of the test on Pythium ultimum, they were dissolved in DMSO and diluted into water to 20 ppm. Pyrenophora teres (barley net blotch): Barley leaf segments were placed on agar in a 24-well plate and sprayed with a solution of the test compound. After allowing to dry completely, for between 12 and 24 hours, the leaf disks were inoculated with a spore suspension of the fungus. After appropriate incubation the activity of a compound was assessed four days after inoculation as preventive fungicidal activity.

[2] = test system: Puccinia recondita f.sp. tritici; experiment: Leaf disk assay, Puccinia recondita f.sp. tritici (wheat brown rust), preventive; assay type: in vivo; conditions: foliar, 216 h, wheat leaf segments, assessed nine days after inoculation, read-out: control of fungal infection, Puccinia recondita f.sp. tritici
Fusarium culmorum = experiment: Growth inhibition in nutrient broth, Fusarium culmorum (root rot), photometric; assay type: cell-based; conditions: 48 h, read-out: control of fungal infection, Fusarium culmorum
How it was run: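 Fusarium culmorum conidia in potato dextrose broth were added to compounds in DMSO. Plates were incubated at 24 C for 48 hrs, with growth inhibition read photometrically. […]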

CSC(Oc1cc(C)c2ncc(C#CCO)cc2c1)C(=O)NC(C)(C)C (centres unmarked) [Example 17]
≥ 60%: pest or weed control at 200 ppm (Phytophthora infestans) | inhibition of growth at 20 ppm (Pythium ultimum) | pest or weed control at 200 ppm (Plasmopara viticola) | inhibition of growth at 60 ppm (Septoria tritici) | pest or weed control at 200 ppm (Botrytis cinerea)

C#Cc1cnc2c(Cl)cc(OC(SC)C(=O)NC(C)(C)C#CC)cc2c1 (centres unmarked) [Example 20]
≥ 60%: pest or weed control at 200 ppm (Phytophthora infestans) | pest or weed control at 200 ppm [1] | pest or weed control at 200 ppm (Septoria nodorum) | inhibition of growth at 20 ppm (Pythium ultimum) | pest or weed control at 200 ppm (Plasmopara viticola) | pest or weed control at 200 ppm (Pyrenophora teres) | pest or weed control at 200 ppm [2] | inhibition of growth at 60 ppm (Septoria tritici) | pest or weed control at 200 ppm (Botrytis cinerea) | inhibition of growth at 60 ppm (Fusarium culmorum)

COCC#CC(C)(C)NC(=O)C(Oc1cc(C)c2ncc(C#CCO)cc2c1)SC (centres unmarked) [Example 28]
≥ 60%: pest or weed control at 200 ppm (Phytophthora infestans) | inhibition of growth at 20 ppm (Pythium ultimum) | pest or weed control at 200 ppm (Botrytis cinerea)

C#CCOCC(C)(C)NC(=O)C(Oc1ccc2ncc(C#C)cc2c1)SC (centres unmarked) [Example 30]
≥ 60%: pest or weed control at 200 ppm (Phytophthora infestans) | pest or weed control at 200 ppm [1] | pest or weed control at 200 ppm (Septoria nodorum) | inhibition of growth at 20 ppm (Pythium ultimum) | pest or weed control at 200 ppm (Plasmopara viticola) | pest or weed control at 200 ppm (Pyrenophora teres) | pest or weed control at 200 ppm [2] | inhibition of growth at 60 ppm (Septoria tritici) | pest or weed control at 200 ppm (Botrytis cinerea) | inhibition of growth at 60 ppm (Fusarium culmorum)

C#CCC(C)(C)NC(=O)C(Oc1ccc2ncc(C#C)cc2c1)SC (centres unmarked) [Example 31]
≥ 60%: pest or weed control at 200 ppm (Phytophthora infestans) | pest or weed control at 200 ppm [1] | pest or weed control at 200 ppm (Septoria nodorum) | inhibition of growth at 20 ppm (Pythium ultimum) | pest or weed control at 200 ppm (Plasmopara viticola) | pest or weed control at 200 ppm (Pyrenophora teres) | pest or weed control at 200 ppm [2] | inhibition of growth at 60 ppm (Septoria tritici) | pest or weed control at 200 ppm (Botrytis cinerea) | inhibition of growth at 60 ppm (Fusarium culmorum)

COCC#Cc1cnc2ccc(OC(SC)C(=O)NC(C)(C)C#CCOC)cc2c1 (centres unmarked) [Example 44]
≥ 60%: pest or weed control at 200 ppm (Phytophthora infestans) | pest or weed control at 200 ppm [1] | inhibition of growth at 20 ppm (Pythium ultimum) | pest or weed control at 200 ppm (Plasmopara viticola) | inhibition of growth at 60 ppm (Septoria tritici) | pest or weed control at 200 ppm (Botrytis cinerea)

CC#CC(C)(C)NC(=O)C(Oc1ccc2ncc(C#CCOC)cc2c1)SC (centres unmarked) [Example 45]
≥ 60%: pest or weed control at 200 ppm (Phytophthora infestans) | pest or weed control at 200 ppm [1] | inhibition of growth at 20 ppm (Pythium ultimum) | pest or weed control at 200 ppm (Plasmopara viticola) | inhibition of growth at 60 ppm (Septoria tritici) | pest or weed control at 200 ppm (Botrytis cinerea)

CC#Cc1cnc2ccc(OC(SC)C(=O)NC(C)(C)C#CC)cc2c1 (centres unmarked) [Example 56]
≥ 60%: pest or weed control at 200 ppm (Phytophthora infestans) | pest or weed control at 200 ppm [1] | pest or weed control at 200 ppm (Septoria nodorum) | inhibition of growth at 20 ppm (Pythium ultimum) | pest or weed control at 200 ppm (Plasmopara viticola) | inhibition of growth at 60 ppm (Septoria tritici) | pest or weed control at 200 ppm (Botrytis cinerea)

C#CCOCC#CC(C)(C)NC(=O)C(Oc1cc(Cl)c2ncc(C#C)cc2c1)SC (centres unmarked) [Example 63]
≥ 60%: pest or weed control at 200 ppm (Phytophthora infestans) | pest or weed control at 200 ppm [1] | pest or weed control at 200 ppm (Septoria nodorum) | inhibition of growth at 20 ppm (Pythium ultimum) | pest or weed control at 200 ppm (Plasmopara viticola) | pest or weed control at 200 ppm (Pyrenophora teres) | pest or weed control at 200 ppm [2] | inhibition of growth at 60 ppm (Septoria tritici) | pest or weed control at 200 ppm (Botrytis cinerea)

C#Cc1cnc2cc(F)c(OC(SC)C(=O)NC(C)(C)C#CCOC)cc2c1 (centres unmarked) [Example 66]
≥ 60%: pest or weed control at 200 ppm (Phytophthora infestans) | pest or weed control at 200 ppm [1] | pest or weed control at 200 ppm (Septoria nodorum) | inhibition of growth at 20 ppm (Pythium ultimum) | pest or weed control at 200 ppm (Plasmopara viticola) | pest or weed control at 200 ppm (Pyrenophora teres) | pest or weed control at 200 ppm [2] | inhibition of growth at 60 ppm (Septoria tritici) | pest or weed control at 200 ppm (Botrytis cinerea) | inhibition of growth at 60 ppm (Fusarium culmorum)

C#Cc1cnc2c(Br)cc(OC(SC)C(=O)NC(C)(C)C#CCOC)cc2c1 (centres unmarked) [Example 70]
≥ 60%: pest or weed control at 200 ppm (Phytophthora infestans) | pest or weed control at 200 ppm [1] | pest or weed control at 200 ppm (Septoria nodorum) | inhibition of growth at 20 ppm (Pythium ultimum) | pest or weed control at 200 ppm (Plasmopara viticola) | pest or weed control at 200 ppm (Pyrenophora teres) | pest or weed control at 200 ppm [2] | inhibition of growth at 60 ppm (Septoria tritici) | pest or weed control at 200 ppm (Botrytis cinerea)

C#CCOCCC(C)(C#N)NC(=O)C(Oc1ccc2ncc(C#C)cc2c1)SC (centres unmarked) [Example 72]
≥ 60%: pest or weed control at 200 ppm (Phytophthora infestans) | pest or weed control at 200 ppm [1] | pest or weed control at 200 ppm (Septoria nodorum) | inhibition of growth at 20 ppm (Pythium ultimum) | pest or weed control at 200 ppm (Plasmopara viticola) | pest or weed control at 200 ppm (Pyrenophora teres) | pest or weed control at 200 ppm [2] | inhibition of growth at 60 ppm (Septoria tritici) | pest or weed control at 200 ppm (Botrytis cinerea)

C#Cc1cnc2c(C)cc(OC(SC)C(=O)NC(C)(C)C=O)cc2c1 (centres unmarked) [Example 73]
≥ 60%: pest or weed control at 200 ppm (Phytophthora infestans) | pest or weed control at 200 ppm [1] | pest or weed control at 200 ppm (Septoria nodorum) | inhibition of growth at 20 ppm (Pythium ultimum) | pest or weed control at 200 ppm (Plasmopara viticola) | pest or weed control at 200 ppm (Pyrenophora teres) | inhibition of growth at 60 ppm (Septoria tritici) | pest or weed control at 200 ppm (Botrytis cinerea)

CC#CC(C)(C)NC(=O)C(OC)Oc1ccc2ncc(C#C[Si](C)(C)C)cc2c1 (centres unmarked) [Example 79]
≥ 60%: pest or weed control at 200 ppm (Phytophthora infestans) | pest or weed control at 200 ppm [1] | pest or weed control at 200 ppm (Plasmopara viticola) | inhibition of growth at 60 ppm (Septoria tritici) | pest or weed control at 200 ppm (Botrytis cinerea)

C#Cc1cnc2ccc(OC(SC)C(=O)NC(C)(C)C#CCC)cc2c1 (centres unmarked) [Example 117]
≥ 60%: pest or weed control at 200 ppm (Phytophthora infestans) | pest or weed control at 200 ppm [1] | pest or weed control at 200 ppm (Septoria nodorum) | inhibition of growth at 20 ppm (Pythium ultimum) | pest or weed control at 200 ppm (Plasmopara viticola) | pest or weed control at 200 ppm (Pyrenophora teres) | pest or weed control at 200 ppm [2] | inhibition of growth at 60 ppm (Septoria tritici) | inhibition of growth at 60 ppm (Fusarium culmorum)

C#Cc1cnc2c(Br)cc(OC(SC)C(=O)NC(C)(C)C#C)cc2c1 (centres unmarked) [Example 130]
≥ 60%: pest or weed control at 200 ppm (Phytophthora infestans) | pest or weed control at 200 ppm [1] | pest or weed control at 200 ppm (Septoria nodorum) | inhibition of growth at 20 ppm (Pythium ultimum) | pest or weed control at 200 ppm (Plasmopara viticola) | pest or weed control at 200 ppm (Pyrenophora teres) | pest or weed control at 200 ppm [2] | inhibition of growth at 60 ppm (Septoria tritici) | inhibition of growth at 60 ppm (Fusarium culmorum)

C#Cc1cnc2c(Br)cc(OC(SC)C(=O)NC(C)(C)C#CC)cc2c1 (centres unmarked) [Example 131]
≥ 60%: pest or weed control at 200 ppm (Phytophthora infestans) | pest or weed control at 200 ppm [1] | pest or weed control at 200 ppm (Septoria nodorum) | inhibition of growth at 20 ppm (Pythium ultimum) | pest or weed control at 200 ppm (Plasmopara viticola) | pest or weed control at 200 ppm (Pyrenophora teres) | pest or weed control at 200 ppm [2] | inhibition of growth at 60 ppm (Septoria tritici) | inhibition of growth at 60 ppm (Fusarium culmorum)

C#Cc1cnc2c(Br)cc(OC(SC)C(=O)NC(C)(C)C)cc2c1 (centres unmarked) [Example 132]
≥ 60%: pest or weed control at 200 ppm (Phytophthora infestans) | pest or weed control at 200 ppm [1] | pest or weed control at 200 ppm (Septoria nodorum) | inhibition of growth at 20 ppm (Pythium ultimum) | pest or weed control at 200 ppm (Plasmopara viticola) | pest or weed control at 200 ppm (Pyrenophora teres) | pest or weed control at 200 ppm [2] | inhibition of growth at 60 ppm (Septoria tritici) | inhibition of growth at 60 ppm (Fusarium culmorum)

C#Cc1cnc2c(F)c(F)c(OC(SC)C(=O)NC(C)(C)C)cc2c1 (centres unmarked) [Example 219]
≥ 60%: pest or weed control at 200 ppm (Phytophthora infestans) | pest or weed control at 200 ppm [1] | pest or weed control at 200 ppm (Septoria nodorum) | inhibition of growth at 20 ppm (Pythium ultimum) | pest or weed control at 200 ppm (Plasmopara viticola) | pest or weed control at 200 ppm (Pyrenophora teres) | pest or weed control at 200 ppm [2] | inhibition of growth at 60 ppm (Septoria tritici) | inhibition of growth at 60 ppm (Fusarium culmorum)
